# Measurements taken from patent EP0084516B1, “Anthelmintics” (CIBA-GEIGY AG, priority 1982, dated 1983).
# Values joined by “and” are separate entries in the source; they are usually repeats but may differ in a detail not shown here. Identical values can stand only once.
# Key:
# [1] = tested on: Fasciola hepatica; test: Tests on sheep artificially infected with Fasciola hepatica metacercariae (faecal egg counts and adult fluke counts at autopsy); format: in vivo, Schafe; details: for Adulte Egel bei Autopsie Mittelwert: group mean
# Method: Versuche an mit Fasciola hepatica infizierten Schafen
# 36 Schafe wurden artifiziell mit Metacercarien von Fasciola hepatica infiziert. Zu diesem Zweck wurden die Metacercarien in einer wäßrigen 0,4%igen Suspension von Carboxymethylcellulose direkt in den Rumen der Versuchstiere injiziert. Die Tiere wurden dann für die Medikierung in etwa gleichgroße Gruppen und in drei Kontrollgruppen eingeteilt. Nach 4 Wochen wurden die Wirkstoffe in Dosen von 5 bis 10 mg/kg Körpergewicht je nach vorgesehener Kombination an die Versuchstiere verabreicht.
# Während des Versuchs wurden die Schafe in Gehegeboxen unter Normalbedingungen gehalten.
# Zur Prüfung der Wirkung der einzelnen Wirkstoffkombinationen wurden mit einer Standardtechnik 12 bis 15 Wochen nach Infizierung bzw. 8 bis 11 Wochen nach Medikierung die von den Leberegeln abgelegten Eier im Kot gezählt. Anschließend wurden die Versuchstiere getötet, soweit sie nicht zur Gruppe B und Kontrollgrupe B' gehörten (Tiere Nr. 26-36), und es wurde die Zahl der vorhandenen Leberegel festgestellt.
# [2] = tested on: Fasciola hepatica; test: as above; format: in vivo, Schafe; details: B 4,6 mg/kg, individual sheep
# [3] = tested on: 6wöchige und jüngere Leberegel; details: comparable dose; from Austral. Vet. J. 55, 431-432, 1979; Brit. Vet. J. 138,371-382, 1982; cited from earlier work
compound,measurement,setting,value
"CSc1nc2cc(Cl)c(Oc3cccc(Cl)c3Cl)cc2[nH]1 [Substanz A, 5-Chlor-6-(2',3'-dichlorphenoxy)-2-methylthiobenzimidazol]",Adulte Egel bei Autopsie Anzahl,"[1]; A 5,0 mg/kg, given 4 weeks after infection, individual sheep",12 and 23 and 2 and 14 and 0
same,EPG* 14. Woche,"[1]; A 5,0 mg/kg, given 4 weeks after infection, liver fluke eggs per g faeces, week 14 after infection, individual sheep",65 pro gr Faeces and 60 pro gr Faeces and 0 pro gr Faeces (2×) and 10 pro gr Faeces
same,EPG* 15. Woche,"[1]; A 5,0 mg/kg, given 4 weeks after infection, week 15 after infection, individual sheep",125 pro gr Faeces and 60 pro gr Faeces and 5 pro gr Faeces and 0 pro gr Faeces (2×)
same,Adulte Egel bei Autopsie Mittelwert,"[1]; A 5,0 mg/kg, sheep 1-5","10,2"
same,Adulte Egel bei Autopsie % Reduktion,"[1]; A 5,0 mg/kg, versus untreated control A'","89,4%"
"CCCSc1ccc2nc(NC(=O)OC)[nH]c2c1 [Substanz B, [5-(Propylthio)-1 H-benzimidazol-2-yl]-carbaminsäuremethylester]",EPG* 12. Woche,"[2]; given 4 weeks after infection, week 12 after infection",360 pro gr Faeces and 370 pro gr Faeces and 290 pro gr Faeces and 880 pro gr Faeces
same,EPG* 13. Woche,[2]; week 13 after infection,1110 pro gr Faeces and 560 pro gr Faeces and 370 pro gr Faeces and 1280 pro gr Faeces
same,Wirkung gegen 6wöchige und jüngere Leberegel,[3],unwirksam
"COC(=O)Nc1nc2ccc(Sc3ccccc3)cc2[nH]1 [Substanz C, [5-(Phenylthio)-1 H-benzimidazol-2-yl]-carbaminsäuremethylester, reference compound]",Adulte Egel bei Autopsie Anzahl,"[1]; C 5,0 mg/kg, given 4 weeks after infection, Tabelle 2, individual sheep",54 and 77 and 82
same,Adulte Egel bei Autopsie Mittelwert,"[1]; C 5,0 mg/kg, Tabelle 2, sheep 20-22",71
same,Adulte Egel bei Autopsie % Reduktion,"[1]; C 5,0 mg/kg, Tabelle 2, versus untreated control C'",0%
